Data as given in patent US20260226027A1, “DEUTERATED COMPOUNDS” (Neurocrine Biosciences, Inc., priority 2023, published 2026).

Key:
human hepatocytes = experiment: Metabolite profile in cryopreserved human hepatocytes; type: in vitro ADME; settings: 10 μM Compound 1, 120 min
Experimental: (§1) Metabolite profile and metabolite identification of Compound 1 were studied in cryopreserved SD-rat, beagle dog and human hepatocytes. The incubations were conducted using 10 μM initial concentrations of test substance and sampling at 0 min, 60 min, and 120 min. The samples were analysed using UPLC/Q-TOF-MS. Incubation material and procedures are provided Table 1. The samples were thawed at room temperature (RT), centrifuged (10 min at 13000×g (Heraeus Pico 17 centrifuge), and the supernatants were pipetted to glass vials to wait for analysis. Analysis was performed using liquid chromatography-mass spectrometry (LC-MS) according to the parameters described in Table 2. The samples were thawed at room temperature (RT), centrifuged (10 min at 13000×g (Heraeus Pico 17 centrifuge), and the supernatants were pipetted to glass vials to wait for analysis.

SD-rat hepatocytes = experiment: Metabolite profile in cryopreserved SD-rat hepatocytes; type: in vitro ADME; settings: 10 μM Compound 1, 120 min
Experimental: as §1

beagle dog hepatocytes = experiment: Metabolite profile in cryopreserved beagle dog hepatocytes; type: in vitro ADME; settings: 10 μM Compound 1, 120 min
Experimental: as §1

[1] = Metabolite identification in cross-subject human plasma pool; type: in vivo; settings: day 7, 0-24 h pool, multiple daily oral 15 mg Compound 1, n=8
Experimental: The in vivo metabolism of Compound 1 was investigated in studies using rat, dog, rabbit, and human plasma and human urine samples from toxicology studies, an embryofetal development study, and a human clinical study.
Human plasma and urine samples originated from a human clinical study with subjects aged 65 years or older, dosed with 15 mg daily and achieving steady-state before day 7. Samples were stored at −75° C. or below from collection until analysis.
Human plasma samples from each Compound 1-dosed subject (15 mg; n=8) collected at day 7 at 0.25 h, 0.5 h, 1 h, 1.5 h, 2 h, 3 h, 4 h, 6 h, 8 h, 10 h, 12 h and 24 h after multiple daily oral administration were pooled for analysis. Plasma from placebo-dosed subjects (n=2) taken at the same time-points and pre-dose plasma collected on day 1 from Compound 1-dosed subjects were used as control for metabolite identification.
Time-normalized pooled plasma samples (day 7; 0-24 h) were prepared for each human subject treated with Compound 1 (15 mg; n=8) or with placebo (n=2) (see e.g., Hamilton et al, Clin. Pharmacol. Ther. 1983, 29(3):408-13). Composite time-normalized pooled plasma samples for human subjects dosed with Compound 1 or placebo were then prepared by combining an equal volume from the pooled sample prepared for each subject. A composite control plasma sample was prepared by combining an equal volume of pre-dose plasma from human subjects treated with Compound 1 (n=8).
Aliquots (100 μL) of the pooled plasma samples prepared for metabolite identification were treated with ice-cold acetonitrile (500 μL), mixed and centrifuged (2000 g; 4° C.; 10 min). […]
Samples were analysed by LC-MS, utilising a Vion Q-TOF mass spectrometer (Waters), Acquity I-class LC pumps, column heater, sample manager and photodiode array detector (Waters). […] Metabolite abundance was calculated as a percentage of total drug-related material in a given sample; the MS peak areas were collated and summed, and the abundance of each metabolite calculated as a percentage of the total in each sample. […]

[2] = Metabolite identification in cross-subject human urine pool; type: in vivo; settings: day 7, 0-24 h pool, multiple daily oral 15 mg Compound 1, n=8
Experimental: Human urine samples from the Compound 1-dosed subjects (15 mg; n=8) collected at day 7 between 0-4 h, 4 h-8 h, 8 h-12 h and 12 h-24 h after multiple daily oral administration were also pooled for analysis. Urine from placebo-dosed subjects (n=2) collected at day 7 over the same time periods was used as control for metabolite identification.
A composite urine sample (day 7; 0-24 h) was prepared for each human subject treated with Compound 1 (15 mg; n=8) or with placebo (n=2) by combining proportional amounts of the sample collected over each time period. Composite cross-subject urine samples for human subjects dosed with Compound 1 or placebo were then prepared by combining proportional amounts of pooled urine from each subject. All urine pools were mixed and centrifuged (2000 g; 4° C.; 10 min) prior to analysis.
Samples were analysed by LC-MS, utilising a Vion Q-TOF mass spectrometer (Waters), Acquity I-class LC pumps, column heater, sample manager and photodiode array detector (Waters). The mass spectrometer was set to operate in positive ion mode and a number of experiments were performed to enable the acquisition of full scan and product ion data. […] Metabolite abundance was calculated as a percentage of total drug-related material in a given sample; the MS peak areas were collated and summed, and the abundance of each metabolite calculated as a percentage of the total in each sample. Based on apparent abundance, metabolites were categorized as ‘major’ if present at 10% or more of the total drug-related material, ‘minor’ if between 1 and <10% and ‘trace’ if <1%.

[3] = Control incubation without cells; type: in vitro ADME
Experimental: as §1

[4] = tested on: SD-rat, beagle dog and human hepatocytes; experiment: Hepatocyte incubation, remaining abundance in all species; type: in vitro ADME; settings: 10 μM
Experimental: as §1

Metabolite profile, Human 120 min, % (human hepatocytes) | Metabolite profile, Rat 120 min, % (SD-rat hepatocytes) | % Abundance in Sample, Plasma (% of total drug-related material) [1] | % Abundance in Sample, Urine (% of total drug-related material) [2] | Compound | Metabolite profile, Dog 120 min, % (beagle dog hepatocytes) | Metabolite profile, No cells 120 min, % ([3]; incubation without cells, 10 μM, 120 min) | disappearance in the control incubation without cells ([3]; without cells) | remaining abundances after 120 min incubation period [4]
13.8% | 4.9% | 11.4% | 26.4% | Cn1nccc1C1CCN([C@H]2C[C@]3(CCNC3)C2)CC1 [Compound M4] | 4.6% | – | – | –
0.3% | 0.1% | 2.3% | 3.3% | CCOC(=O)N1CC[C@]2(C1)C[C@@H](N1CCC(c3ccn[nH]3)CC1)C2 [Compound M2] | – | – | – | –

Compound | Metabolite profile, Human 120 min, % (human hepatocytes) | Metabolite profile, Rat 120 min, % (SD-rat hepatocytes) | % Abundance in Sample, Plasma (% of total drug-related material) [1] | % Abundance in Sample, Urine (% of total drug-related material) [2] | Metabolite profile, Dog 120 min, % (beagle dog hepatocytes) | Metabolite profile, No cells 120 min, % ([3]; incubation without cells, 10 μM, 120 min) | disappearance in the control incubation without cells ([3]; without cells) | remaining abundances after 120 min incubation period [4]
CCOC(=O)N1CC[C@]2(C1)C[C@@H](N1CCC(c3ccnn3C)CC1)C2 [Compound 1, cis ethyl 2-[4-(1-methyl-1H-pyrazol-5-yl)piperidin-1-yl]-6-azaspiro[3.4]octane-6-carboxylate] | 84.0% | 93.7% | 82.0% | 63.3% | 94.9% | 100% | Practically no disappearance | 79-93%
